pEC50, pIC50: −log10 of the molar value. Like-named read-outs stand apart in the source and are kept apart here.
Experiments:
[1] = molecular target: SARS-CoV-2 3CL-protease (Severe acute respiratory syndrome coronavirus 2, UniProt P0DTD1); assay: SARS-CoV-2 3C-like (3CL) protease fluorescence assay (FRET); assay type: biochemical; details: recombinant SARS-CoV-2 3CL-protease 10 nM, 30 min preincubation at RT, duplicate; read-out: FRET IC50
[2] = tested on: 229E human corona virus (hCoV); assay: 229E live virus assay (CPE, ATPlite readout, MRC-5 cells); assay type: cell-based, hCoV-229E; details: Human coronavirus 229E, MRC5, 144 h, read-out: 229E EC50
[3] = MRC-5 cells, MOI 0.05, 6 days at 34° C., ATPlite, duplicate

| SMILES | pIC50 [1] | pEC50 [2, 3] | pEC50 [2] |
| --- | --- | --- | --- |
| CC(C)C[C@@H](C(=O)Nc1cc(F)cc(F)c1)C(=O)N1C[C@]2(C[C@H]1C#N)C(=O)Nc1ccccc12 (single isomer, unassigned) [Example 11] | < 6.00 | < 6.00 | – |
| CC(C)C[C@H](C(=O)Nc1cc(F)cc(F)c1)C(=O)N1C[C@]2(C[C@H]1C#N)C(=O)Nc1ccccc12 (single isomer, unassigned) [Example 12] | < 6.00 | < 6.00 | – |
| CC(C)CC(C(=O)Nc1ccccc1)C(=O)N1C[C@]2(C[C@H]1C#N)C(=O)Nc1ccccc12 (some centres unmarked) [Example 1] | < 6.00 | – | < 6.00 |
| CC(C)CC(C(=O)N(C)c1ccccc1)C(=O)N1C[C@]2(C[C@H]1C#N)C(=O)Nc1ccccc12 (some centres unmarked) [Example 2] | < 6.00 | < 6.00 | – |
| CC(C)CC(C(=O)NC1CC1)C(=O)N1C[C@]2(C[C@H]1C#N)C(=O)Nc1ccccc12 (some centres unmarked) [Example 3] | < 6.00 | 6.00 to 7.00 | – |
| CC(C)CC(C(=O)Nc1cc2ccccc2[nH]1)C(=O)N1C[C@]2(C[C@H]1C#N)C(=O)Nc1ccccc12 (some centres unmarked) [Example 4] | < 6.00 | < 6.00 | – |
| CC(C)CC(C(=O)Nc1ccc2ccccc2c1)C(=O)N1C[C@]2(C[C@H]1C#N)C(=O)Nc1ccccc12 (some centres unmarked) [Example 5] | < 6.00 | 6.00 to 7.00 | – |
| CC(C)CC(C(=O)Nc1cc(F)ccc1F)C(=O)N1C[C@]2(C[C@H]1C#N)C(=O)Nc1ccccc12 (some centres unmarked) [Example 6] | < 6.00 | 6.00 to 7.00 | – |
| CC(C)CC(C(=O)Nc1cc(F)cc(F)c1)C(=O)N1C[C@]2(C[C@H]1C#N)C(=O)Nc1ccccc12 (some centres unmarked) [Example 7] | < 6.00 | 6.00 to 7.00 | – |
| CC(C)CC(C(=O)Nc1ccc(F)cc1F)C(=O)N1C[C@]2(C[C@H]1C#N)C(=O)Nc1ccccc12 (some centres unmarked) [Example 8] | < 6.00 | < 6.00 | – |
| CC(C)CC(C(=O)Nc1ccc(F)cc1Cl)C(=O)N1C[C@]2(C[C@H]1C#N)C(=O)Nc1ccccc12 (some centres unmarked) [Example 9] | < 6.00 | < 6.00 | – |
| CC(C)CC(C(=O)Nc1c(F)cccc1Cl)C(=O)N1C[C@]2(C[C@H]1C#N)C(=O)Nc1ccccc12 (some centres unmarked) [Example 10] | < 6.00 | < 6.00 | – |
| CC(C)CC(C(=O)Nc1cccc(-c2ccccc2)c1)C(=O)N1C[C@]2(C[C@H]1C#N)C(=O)Nc1ccccc12 (some centres unmarked) [Example 13] | < 6.00 | < 6.00 | – |
| CC(C)CC(C(=O)Nc1ccc(-c2ccccc2)cc1)C(=O)N1C[C@]2(C[C@H]1C#N)C(=O)Nc1ccccc12 (some centres unmarked) [Example 14] | < 6.00 | < 6.00 | – |
| CC(C(=O)Nc1ccccc1)C(=O)N1C[C@]2(C[C@H]1C#N)C(=O)Nc1ccccc12 (some centres unmarked) [Example 15] | < 6.00 | < 6.00 | – |
| CC(C(=O)N(C)c1ccccc1)C(=O)N1C[C@]2(C[C@H]1C#N)C(=O)Nc1ccccc12 (some centres unmarked) [Example 16] | < 6.00 | 6.00 to 7.00 | – |

| SMILES | pIC50 [1] | pEC50 [2, 3] | pEC50 [2] |
| --- | --- | --- | --- |
| CC(C(=O)Nc1cc(F)cc(F)c1)C(=O)N1C[C@]2(C[C@H]1C#N)C(=O)Nc1ccccc12 (some centres unmarked) [Example 17] | < 6.00 | < 6.00 | – |
| CC(C)CC(F)(C(=O)Nc1ccccc1)C(=O)N1C[C@]2(C[C@H]1C#N)C(=O)Nc1ccccc12 (some centres unmarked) [Example 18] | < 6.00 | < 6.00 | – |
| CC(C)CC(F)(C(=O)N(C)c1ccccc1)C(=O)N1C[C@]2(C[C@H]1C#N)C(=O)Nc1ccccc12 (some centres unmarked) [Example 19] | < 6.00 | < 6.00 | – |
| CC(C)CC(F)(C(=O)Nc1cc(F)cc(F)c1)C(=O)N1C[C@]2(C[C@H]1C#N)C(=O)Nc1ccccc12 (some centres unmarked) [Example 20] | < 6.00 | < 6.00 | – |
| N#C[C@@H]1C[C@@]2(CN1C(=O)C(Cc1ccccc1)C(=O)Nc1ccccc1)C(=O)Nc1ccccc12 (some centres unmarked) [Example 21] | 6.00 to 7.00 | < 6.00 | – |
| CN(C(=O)C(Cc1ccccc1)C(=O)N1C[C@]2(C[C@H]1C#N)C(=O)Nc1ccccc12)c1ccccc1 (some centres unmarked) [Example 22] | < 6.00 | < 6.00 | – |
| N#C[C@@H]1C[C@@]2(CN1C(=O)C(Cc1ccccc1)C(=O)Nc1cc(F)cc(F)c1)C(=O)Nc1ccccc12 (some centres unmarked) [Example 23] | 6.00 to 7.00 | < 6.00 | – |
| N#C[C@@H]1C[C@@]2(CN1C(=O)C(Cc1ccccc1)C(=O)Nc1ccc3ccccc3c1)C(=O)Nc1ccccc12 (some centres unmarked) [Example 24] | 6.00 to 7.00 | < 6.00 | – |
| N#C[C@@H]1C[C@@]2(CN1C(=O)[C@@H](Cc1ccccc1)C(=O)Nc1cc(F)cc(F)c1)C(=O)Nc1ccccc12 [Example 25] | 6.00 to 7.00 | < 6.00 | – |
| N#C[C@@H]1C[C@@]2(CN1C(=O)C(=O)N[C@H]1CC[C@@H](NC(=O)c3ccccc3)CC1)C(=O)Nc1ccccc12 [Example 151] | < 6.00 | – | – |
| CC(C)(C)OC(=O)N[C@H]1CC[C@@H](NC(=O)C(=O)N2C[C@]3(C[C@H]2C#N)C(=O)Nc2ccccc23)C1 [Example 152] | < 6.00 | – | – |
| CC(C)(C)OC(=O)N[C@H]1CCC[C@@H]1NC(=O)C(=O)N1C[C@]2(C[C@H]1C#N)C(=O)Nc1ccccc12 [Example 153] | < 6.00 | – | – |
| N#C[C@@H]1C[C@@]2(CN1C(=O)C(=O)NCC1CCCCC1)C(=O)Nc1ccccc12 [Example 154] | 6.00 to 7.00 | – | – |
| N#C[C@@H]1C[C@@]2(CN1C(=O)C(=O)NCCC1CCCCC1)C(=O)Nc1ccccc12 [Example 155] | 6.00 to 7.00 | – | – |
| CCCCCCNC(=O)C(=O)N1C[C@]2(C[C@H]1C#N)C(=O)Nc1ccccc12 [Example 156] | 6.00 to 7.00 | – | – |

Reference: US20230159546A1, “NOVEL SPIROPYRROLIDINE DERIVED ANTIVIRAL AGENTS” (Enanta Pharmaceuticals, Inc., priority 2021, published 2023)
